Laboratory results reported in patent US7795290B2 (Genentech, Inc., priority 2004, dated 2010).

The molecules below were run against T1, AKT1 (Homo sapiens, UniProt P31749) (assay: HTS ATP-utilizing enzyme assay, off-chip mobility-shift (Caliper HTS 250)). Conditions: kinase named = inhibitory activity/selectivity; test compound 10 μM; active = greater than three-sigma from mean.
T1 construct: purchased Upstate 14-276
Type: biochemical
Summary of the method: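 AKT1 activity was measured by off-chip mobility shift (Caliper HTS 250) as the ratio of peptide substrate to phosphorylated product. Test compound was at 10 μM, with 2.5 h incubation at 20–22° C. EDTA wells served as 100% control and DMSO wells as 0%. Hits were called at three-sigma limits.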

T1 sequence (P31749 whole entry): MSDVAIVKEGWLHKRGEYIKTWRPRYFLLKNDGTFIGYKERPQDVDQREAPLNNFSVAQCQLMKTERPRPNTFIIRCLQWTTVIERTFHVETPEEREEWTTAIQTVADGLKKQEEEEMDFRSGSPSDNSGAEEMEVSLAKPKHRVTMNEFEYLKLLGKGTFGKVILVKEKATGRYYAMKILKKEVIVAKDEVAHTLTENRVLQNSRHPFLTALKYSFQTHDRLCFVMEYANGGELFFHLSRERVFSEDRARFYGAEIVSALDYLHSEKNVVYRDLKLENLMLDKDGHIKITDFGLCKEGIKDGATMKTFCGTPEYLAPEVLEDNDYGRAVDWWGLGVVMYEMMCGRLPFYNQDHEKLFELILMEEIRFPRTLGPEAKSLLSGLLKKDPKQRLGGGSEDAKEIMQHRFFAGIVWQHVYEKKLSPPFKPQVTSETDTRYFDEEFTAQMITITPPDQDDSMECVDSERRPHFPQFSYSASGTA

| Activity | Structure (SMILES) |
| --- | --- |
| AKT1 | O=C(c1cccs1)N(CCCc1ccccc1)c1nc(-c2cc3ccccc3o2)cs1 [N-(4-(benzofuran-2-yl)thiazol-2-yl)-N-(3-phenylpropyl)thiophene-2-carboxamide] |
| AKT1 | CC(CO)NC(=O)CCCN(C(=O)c1cccs1)c1nc(-c2cc3ccccc3o2)cs1 (centres unmarked) [N-(4-(benzofuran-2-yl)thiazol-2-yl)-N-(4-(1-hydroxypropan-2-ylamino)-4-oxobutyl)thiophene-2-carboxamide] |
| AKT1 | C[S+]([O-])CCNC(=O)CCCN(C(=O)c1cccs1)c1nc(-c2cc3ccccc3o2)cs1 (centres unmarked) [N-(4-(benzofuran-2-yl)thiazol-2-yl)-N-(4-(2-(methylsulfinyl)ethylamino)-4-oxobutyl)thiophene-2-carboxamide] |
| AKT1 | CN(C)CCN1CCN(C(=O)CCCN(C(=O)c2cccs2)c2nc(-c3cc4ccccc4o3)cs2)CC1 [N-(4-(benzofuran-2-yl)thiazol-2-yl)-N-(4-(4-(2-(dimethylamino)ethyl)piperazin-1-yl)-4-oxobutyl)thiophene-2-carboxamide] |
| AKT1 | CN(C)S(=O)(=O)N1CCN(C(=O)CCCN(C(=O)c2cccs2)c2nc(-c3cc4ccccc4o3)cs2)CC1 [N-(4-(benzofuran-2-yl)thiazol-2-yl)-N-(4-(4-(N,N-dimethylsulfamoyl)piperazin-1-yl)-4-oxobutyl)thiophene-2-carboxamide] |
| AKT1 | CCN(CC)C1CCN(C(=O)CCCN(C(=O)c2cccs2)c2nc(-c3cc4ccccc4o3)cs2)CC1 [N-(4-(benzofuran-2-yl)thiazol-2-yl)-N-(4-(4-(diethylamino)piperidin-1-yl)-4-oxobutyl)thiophene-2-carboxamide] |
| AKT1 | CS(=O)(=O)c1ccc2c(c1)CCN2C(=O)CCCN(C(=O)c1cccs1)c1nc(-c2cc3ccccc3o2)cs1 [N-(4-(benzofuran-2-yl)thiazol-2-yl)-N-(4-(5-(methylsulfonyl)indolin-1-yl)-4-oxobutyl)thiophene-2-carboxamide] |
| AKT1 | CN(CC(O)CO)C(=O)CCCN(C(=O)c1cccs1)c1nc(-c2cc3ccccc3o2)cs1 (centres unmarked) [N-(4-(benzofuran-2-yl)thiazol-2-yl)-N-(4-((2,3-dihydroxypropyl)(methyl)amino)-4-oxobutyl)thiophene-2-carboxamide] |
| AKT1 | N#CCCN(CC1CCCO1)C(=O)CCCN(C(=O)c1cccs1)c1nc(-c2cc3ccccc3o2)cs1 (centres unmarked) [N-(4-(benzofuran-2-yl)thiazol-2-yl)-N-(4-((2-cyanoethyl)((tetrahydrofuran-2-yl)methyl)amino)-4-oxobutyl)thiophene-2-carboxamide] |
| AKT1 | O=C(CCCN(C(=O)c1cccs1)c1nc(-c2cc3ccccc3o2)cs1)N(CCO)c1ccccc1 [N-(4-(benzofuran-2-yl)thiazol-2-yl)-N-(4-((2-hydroxyethyl)(phenyl)amino)-4-oxobutyl)thiophene-2-carboxamide] |
| AKT1 | O=C(CCCN(C(=O)c1cccs1)c1nc(-c2cc3ccccc3o2)cs1)N(CCO)Cc1ccncc1 [N-(4-(benzofuran-2-yl)thiazol-2-yl)-N-(4-((2-hydroxyethyl)(pyridin-4-ylmethyl)amino)-4-oxobutyl)thiophene-2-carboxamide] |
| AKT1 | Cc1cnc(CNC(=O)CCCN(C(=O)c2cccs2)c2nc(-c3cc4ccccc4o3)cs2)cn1 [N-(4-(benzofuran-2-yl)thiazol-2-yl)-N-(4-((5-methylpyrazin-2-yl)methylamino)-4-oxobutyl)thiophene-2-carboxamide] |
| AKT1 | O=C(c1cccs1)N(CCCC(=O)N(CCCCO)C1CCCCC1)c1nc(-c2cc3ccccc3o2)cs1 [N-(4-(benzofuran-2-yl)thiazol-2-yl)-N-(4-(cyclohexyl(4-hydroxybutyl)amino)-4-oxobutyl)thiophene-2-carboxamide] |
| AKT1 | O=C(CCCN(C(=O)c1cccs1)c1nc(-c2cc3ccccc3o2)cs1)N1Cc2ccccc2C1 [N-(4-(benzofuran-2-yl)thiazol-2-yl)-N-(4-(isoindolin-2-yl)-4-oxobutyl)thiophene-2-carboxamide] |
| AKT1 | O=C(c1cccs1)N(CCCCN1CCOCC1)c1nc(-c2cc3ccccc3o2)cs1 [N-(4-(benzofuran-2-yl)thiazol-2-yl)-N-(4-morpholinobutyl)thiophene-2-carboxamide] |
| AKT1 | O=C(c1cccs1)N(CCCC(=O)N1CCCC1c1cccnc1)c1nc(-c2cc3ccccc3o2)cs1 (centres unmarked) [N-(4-(benzofuran-2-yl)thiazol-2-yl)-N-(4-oxo-4-(2-(pyridin-3-yl)pyrrolidin-1-yl)butyl)thiophene-2-carboxamide] |
| AKT1 | O=C(CCCN(C(=O)c1cccs1)c1nc(-c2cc3ccccc3o2)cs1)NCCc1ccncc1 [N-(4-(benzofuran-2-yl)thiazol-2-yl)-N-(4-oxo-4-(2-(pyridin-4-yl)ethylamino)butyl)thiophene-2-carboxamide] |
| AKT1 | O=C1CN(C(=O)CCCN(C(=O)c2cccs2)c2nc(-c3cc4ccccc4o3)cs2)CCN1 [N-(4-(benzofuran-2-yl)thiazol-2-yl)-N-(4-oxo-4-(3-oxopiperazin-1-yl)butyl)thiophene-2-carboxamide] |
| AKT1 | O=C(CCCN(C(=O)c1cccs1)c1nc(-c2cc3ccccc3o2)cs1)N1CCCCC1 [N-(4-(benzofuran-2-yl)thiazol-2-yl)-N-(4-oxo-4-(piperidin-1-yl)butyl)thiophene-2-carboxamide] |

| Activity | Structure (SMILES) |
| --- | --- |
| AKT1 | O=C(CCCN(C(=O)c1cccs1)c1nc(-c2cc3ccccc3o2)cs1)NCc1ccccn1 [N-(4-(benzofuran-2-yl)thiazol-2-yl)-N-(4-oxo-4-(pyridin-2-ylmethylamino)butyl)thiophene-2-carboxamide] |
| AKT1 | O=C(CCCN(C(=O)c1cccs1)c1nc(-c2cc3ccccc3o2)cs1)NCc1cccnc1 [N-(4-(benzofuran-2-yl)thiazol-2-yl)-N-(4-oxo-4-(pyridin-3-ylmethylamino)butyl)thiophene-2-carboxamide] |
| AKT1 | O=C(CCCN(C(=O)c1cccs1)c1nc(-c2cc3ccccc3o2)cs1)N1CCSC1 [N-(4-(benzofuran-2-yl)thiazol-2-yl)-N-(4-oxo-4-(thiazolidin-3-yl)butyl)thiophene-2-carboxamide] |
| AKT1 | O=C(c1cccs1)N(CCCCCN1CCOCC1)c1nc(-c2cc3ccccc3o2)cs1 [N-(4-(benzofuran-2-yl)thiazol-2-yl)-N-(5-morpholinopentyl)thiophene-2-carboxamide] |
| AKT1 | CCCN(C(=O)c1cccs1)c1nc(-c2cc3ccccc3o2)cs1 [N-(4-(benzofuran-2-yl)thiazol-2-yl)-N-propylthiophene-2-carboxamide] |
| AKT1 | O=C(c1cccs1)N(CCCN1CCOCC1)c1nc(-c2coc3ccccc23)cs1 [N-(4-(benzofuran-3-yl)thiazol-2-yl)-N-(3-morpholinopropyl)thiophene-2-carboxamide] |
| AKT1 | O=C(c1cccs1)N(CCCN1CCOCC1)c1nc(-c2ccc(-c3ccccc3)cc2)cs1 [N-(4-(biphenyl-4-yl)thiazol-2-yl)-N-(3-morpholinopropyl)thiophene-2-carboxamide] |
| AKT1 | O=C(c1cccs1)N(CCCN1CCOCC1)c1nc(C2CCCCC2)cs1 [N-(4-cyclohexylthiazol-2-yl)-N-(3-morpholinopropyl)thiophene-2-carboxamide] |
| AKT1 | O=C(c1cccs1)N(CCCN1CCOCC1)c1nc(C2CCCC2)cs1 [N-(4-cyclopentylthiazol-2-yl)-N-(3-morpholinopropyl)thiophene-2-carboxamide] |
| AKT1 | O=C(c1ccco1)N(CCCCN1CCOCC1)c1nc(-c2cc(-c3ccccc3)no2)cs1 [N-(4-morpholinobutyl)-N-(4-(3-phenylisoxazol-5-yl)thiazol-2-yl)furan-2-carboxamide] |
| AKT1 | O=C(c1cccs1)N(CCCCN1CCOCC1)c1nc(-c2cc(-c3ccccc3)no2)cs1 [N-(4-morpholinobutyl)-N-(4-(3-phenylisoxazol-5-yl)thiazol-2-yl)thiophene-2-carboxamide] |
| AKT1 | O=C(c1cccs1)N(CCCN1CCCC1)c1nc(-c2ccccc2)cs1 [N-(4-phenylthiazol-2-yl)-N-(3-(pyrrolidin-1-yl)propyl)thiophene-2-carboxamide] |
| AKT1 | Cc1nc(-c2cnccn2)sc1-c1csc(N(CCCN2CCOCC2)C(=O)c2cccs2)n1 [N-(4′-methyl-2′-(pyrazin-2-yl)-4,5′-bithiazol-2-yl)-N-(3-morpholinopropyl)thiophene-2-carboxamide] |
| AKT1 | CCc1nnc(NC(=O)c2csc(N(CCCN3CCOCC3)C(=O)c3cccs3)n2)s1 [N-(5-ethyl-1,3,4-thiadiazol-2-yl)-2-(N-(3-morpholinopropyl)thiophene-2-carboxamido)thiazole-4-carboxamide] |
| AKT1 | O=C(Nc1ccc2ncsc2c1)c1csc(N(CCCN2CCOCC2)C(=O)c2cccs2)n1 [N-(benzo[d]thiazol-6-yl)-2-(N-(3-morpholinopropyl)thiophene-2-carboxamido)thiazole-4-carboxamide] |
| AKT1 | COc1ccc(-c2csc(N(Cc3ccco3)C(=O)c3cccs3)n2)cc1 [N-(furan-2-ylmethyl)-N-(4-(4-methoxyphenyl)thiazol-2-yl)thiophene-2-carboxamide] |
| AKT1 | CCOC(=O)C1CCCCN1CCCN(C(=O)c1cccs1)c1nc(-c2cc3ccccc3o2)cs1 (centres unmarked) [ethyl 1-(3-(N-(4-(benzofuran-2-yl)thiazol-2-yl)thiophene-2-carboxamido)propyl)piperidine-2-carboxylate] |
| AKT1 | CCOC(=O)C1CCCN(CCCN(C(=O)c2cccs2)c2nc(-c3cc4ccccc4o3)cs2)C1 (centres unmarked) [ethyl 1-(3-(N-(4-(benzofuran-2-yl)thiazol-2-yl)thiophene-2-carboxamido)propyl)piperidine-3-carboxylate] |
| AKT1 | CCOC(=O)CC1CCCN(C(=O)CCCN(C(=O)c2cccs2)c2nc(-c3cc4ccccc4o3)cs2)C1 (centres unmarked) [ethyl 2-(1-(4-(N-(4-(benzofuran-2-yl)thiazol-2-yl)thiophene-2-carboxamido)butanoyl)piperidin-3-yl)acetate] |
